Experimental findings from patent US20240139125A1 (INDUSTRIAL COOPERATION FOUNDATION JEONBUK NATIONAL …, priority 2020, published 2024) are described below.

One assay deals with BAL inflammatory cells. As to the kind of experiment: Aspergillus-infected asthmatic mouse model, BAL cells and lung histology. The settings on record: asthma-inducing group; BIA 0.1 mg/kg and 0.01 mg/kg, IC87114 1 mg/kg, intratracheal. It is filed as in vivo. An excerpt: FIG. 80A and FIG. 80B show mice that were infected with aspergillus with or without BIA, or IC87114, fixing the tissue to 4% formalin, injecting paraffin to make blocks, and then cutting into 4 μm thick to react to buffer and performing hematoxylin-eosin staining. The observation result (A) and the observation result (B) by PAS staining are shown.
The result is quantified by counting the total number of cells of living BAL fluid, excluding dead cells stained in trypan blue.
A. fumigatus-induced allergic pulmonary inflammation To establish the model, mice were treated with 10 μg of A. fumigatus crude antigen extract (Greer Laboratories, Cat # XPM3D3A4, Lenoir, NC, USA) with fungal substance inactivated. 0.2 ml of incomplete Freund's adjuvant (Sigma-Aldrich, Cat # F5506-6X) in regular saline It was dissolved and mixed, and half of the preparation was deposited in the peritoneal cavity and the rest was delivered subcutaneously. After 2 weeks, mice received 20 μg of A. fumigatus antigen dissolved in normal saline through the intranasal route, after an intranasal attack After 4 days, 20 μg of A. Fumigatus antigen dissolved in normal saline was treated via the endotracheal route. Control mice were administered only saline at the same time point in time through the same route and treated with the same number of conidia. […]

Assay [1] has as its system association between RICTOR and mTOR or between RICTOR and RPL19. As to the kind of experiment: Proximity ligation assay in PANC-1 cells. It counts as cell-based. The conditions noted are these: PLA. An excerpt:
The graph on the right quantifies the fine, bright points (n=5 independent experiment). The scale bar represents 20 μm. Data were expressed as mean±SD. **p<0.01, Bonferroni's post hoc test after binary ANOVA.

For assay [2], the target named is T1, binding of BI-1 and mTORC2 and ribosomes (Homo sapiens, UniProt P55061).
T1 construct: expressed in transfected cells
As to the kind of experiment: PLA, immunoprecipitation and gel filtration of BI-1/mTORC2/ribosome binding. It counts as cell-based. Here is the method: The graph below quantifies the fine and bright spots (n=5 independent experiment). The scale bar represents 20 μm. Data were expressed as mean±SD. **p<0.01, ****p<0.0001, followed by a binary ANOVA, followed by Bonferroni's post hoc test.
FIG. 62B is the result of PLA between RICTOR and the following proteins mTOR, RPL19 and RPS 16 in HT1080 cells treated with 10 μM BIA. The scale bar represents 20 μm. The graph on the right quantifies the fine and bright points (n=5 independent experiment). Data were expressed as mean±SD. **p<0.01, ***p<0.001, ****p<0.0001, followed by a binary ANOVA followed by Bonferroni's post hoc test.
HT1080 cells knocked out of BI-1 (using 8 10 cm cell culture dishes for each sample) were temporarily transformed using HA-BI-1 (TMBIM6) plasmids. HT1080 cells knocked out of BI-1 were treated with 10 μM of 2E-1-2-Aminophenyl-3-3-nitrophenyl-2-propen-1-one (BIA). After 24 hours, CHAPS containing protease inhibitor cocktail and phosphatase inhibitor cocktail Cells were lysed in 1.0 ml of buffer (pH 7.4, 150 mM NaCl, 1 mM EDTA and 25 mM HEPES at 0.3% CHAPS). The cell lysate was filtered with a 0.45 μm syringe filter. […] 50 μL of each fraction was electrophoresis with SDS-PAGE and then detected with various antibodies. […]

For another assay, the system named is PANC-1 cells. As to the kind of experiment: Cell viability (crystal violet), BIA versus mTOR inhibitors. It counts as cell-based. The conditions noted are these: 10 μM.

T1 sequence (P55061 whole entry): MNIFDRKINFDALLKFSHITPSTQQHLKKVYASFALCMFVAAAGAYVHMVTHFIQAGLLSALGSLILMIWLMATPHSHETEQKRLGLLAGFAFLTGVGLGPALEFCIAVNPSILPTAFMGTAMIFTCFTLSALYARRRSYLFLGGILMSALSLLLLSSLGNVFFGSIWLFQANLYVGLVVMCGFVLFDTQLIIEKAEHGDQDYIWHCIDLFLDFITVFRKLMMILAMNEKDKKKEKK

As to `Nc1ccccc1C(=O)/C=C/c1cccc([N+](=O)[O-])c1` [BIA, 2E-1-2-Aminophenyl-3-3-nitrophenyl-2-propen-1-one], the “all BAL inflammatory cells” value with BAL inflammatory cells is “inhibited”. The “association between RICTOR and mTOR or between RICTOR and RPL19” value in assay [1] is listed as “reduced”. Besides, the “protein interactions between mTORC2 and ribosomes or binding of BI-1 and mTORC2 and ribosomes” value in assay [2] (HT1080 cells, PLA and immunoprecipitation) is “inhibited”. Besides, the “co-elution pattern with mTORC2 components (mTOR and RICTOR) and ribosomes (RPL19)” value in assay [2] (gel filtration, BI-1 overexpressed HT1080 cells, BIA for 24 hours) is listed as “delayed”. Moreover, the live cells entry in the assay with PANC-1 cells was “almost removed live cells”.
